In ChEMBL document CHEMBL3885861, “Open TG-GATES”:

Species: Rattus norvegicus
Test: Open TG-GATES - Regimen: Single
Type: toxicity, organism-based, Sprague-Dawley
Design: regimen Single, gender Male, age 6 weeks
Details: in vivo, po, 20 mg/kg, route gavage, dose level Middle; for APTT / Bas / Eos / Fbg / Hb / Ht / Lym / MCH / MCHC / MCV / Mono / Neu / PT / Plat / RBC / Ret / WBC: tissue Blood; for LIVER: tissue Liver; for A/G / ALP / ALT / AST / BUN / CRE / Ca / Cl / DBIL / GLC / IP / K / LDH / Na / PL / RALB / TBIL / TC / TG / TP / gamma-GTP: tissue Plasma

What does the source list for `O=[N+]([O-])c1ccc(O)c([N+](=O)[O-])c1` [2,4-DINITROPHENOL]?
TERMINAL_BW (3 h): 203.6 g; APTT (3 h): 16.6 s; Bas (3 h): 0%; Eos (3 h): 1%; Fbg (3 h): 246.4 mg/dL; Hb (3 h): 12.6 g/dL; Ht (3 h): 37.5%; Lym (3 h): 75%; MCH (3 h): 22 pg; MCHC (3 h): 33.5%; MCV (3 h): 65.6 fL; Mono (3 h): 11.8%; Neu (3 h): 12.4%; PT (3 h): 11.8 s; Plat (3 h): 115.4 x10_4/uL; RBC (3 h): 572.2 x10_4/ul; Ret (3 h): 10.2%; WBC (3 h): 93.4 x10_2/uL; LIVER (3 h): 9.5 g; A/G (3 h): 2.3; ALP (3 h): 1342.4 IU/L; ALT (3 h): 37.8 IU/L; AST (3 h): 62.6 IU/L; BUN (3 h): 12.8 mg/dL; CRE (3 h): 0.4 mg/dL; Ca (3 h): 11.9 mg/dL; Cl (3 h): 104 meq/L; DBIL (3 h): 0.012 mg/dL; GLC (3 h): 218.2 mg/dL; IP (3 h): 10.9 mg/dL; K (3 h): 4.2 meq/L; LDH (3 h): 125.2 IU/L; Na (3 h): 138.4 meq/L; PL (3 h): 143 mg/dL; RALB (3 h): 3.8 g/dL; TBIL (3 h): 0.036 mg/dL; TC (3 h): 85.4 mg/dL; TG (3 h): 68.6 mg/dL; TP (3 h): 5.5 g/dL; gamma-GTP (3 h): 0 IU/L; TERMINAL_BW (6 h): 200.1 g; APTT (6 h): 16 s; Bas (6 h): 0%; Eos (6 h): 1.2%; Fbg (6 h): 235 mg/dL; Hb (6 h): 13.1 g/dL; Ht (6 h): 39.1%; Lym (6 h): 71.4%; MCH (6 h): 22 pg; MCHC (6 h): 33.6%; MCV (6 h): 65.5 fL; Mono (6 h): 10.2%; Neu (6 h): 17.2%; PT (6 h): 12 s; Plat (6 h): 124 x10_4/uL; RBC (6 h): 596.4 x10_4/ul; Ret (6 h): 8.9%; WBC (6 h): 111 x10_2/uL; LIVER (6 h): 8.2 g; A/G (6 h): 2.6; ALP (6 h): 1422.2 IU/L; ALT (6 h): 36.4 IU/L; AST (6 h): 78.6 IU/L; BUN (6 h): 12.2 mg/dL; CRE (6 h): 0.4 mg/dL; Ca (6 h): 11 mg/dL; Cl (6 h): 105.8 meq/L; DBIL (6 h): 0.02 mg/dL; GLC (6 h): 204.6 mg/dL; IP (6 h): 10.9 mg/dL; K (6 h): 4.5 meq/L; LDH (6 h): 129.2 IU/L; Na (6 h): 139.2 meq/L; PL (6 h): 141.2 mg/dL; RALB (6 h): 3.9 g/dL; TBIL (6 h): 0.044 mg/dL; TC (6 h): 85.6 mg/dL; TG (6 h): 46.4 mg/dL; TP (6 h): 5.4 g/dL; gamma-GTP (6 h): 0 IU/L; TERMINAL_BW (9 h): 203.1 g; APTT (9 h): 16.2 s; Bas (9 h): 0%; Eos (9 h): 0.8%; Fbg (9 h): 255.5 mg/dL; Hb (9 h): 12.9 g/dL; Ht (9 h): 38.4%; Lym (9 h): 77.2%; MCH (9 h): 22.1 pg; MCHC (9 h): 33.8%; MCV (9 h): 65.4 fL; Mono (9 h): 4.8%; Neu (9 h): 17.2%; PT (9 h): 12 s; Plat (9 h): 132.8 x10_4/uL; RBC (9 h): 587.2 x10_4/ul; Ret (9 h): 10.4%; WBC (9 h): 104.5 x10_2/uL; LIVER (9 h): 8.5 g; A/G (9 h): 2.4; ALP (9 h): 1370.8 IU/L; ALT (9 h): 34 IU/L; AST (9 h): 64.5 IU/L; BUN (9 h): 10.5 mg/dL; CRE (9 h): 0.4 mg/dL; Ca (9 h): 11.3 mg/dL; Cl (9 h): 104.5 meq/L; DBIL (9 h): 0.02 mg/dL; GLC (9 h): 198.5 mg/dL; IP (9 h): 11.2 mg/dL; K (9 h): 4.7 meq/L; LDH (9 h): 158 IU/L; Na (9 h): 139 meq/L; PL (9 h): 153.8 mg/dL; RALB (9 h): 3.9 g/dL; TBIL (9 h): 0.045 mg/dL; TC (9 h): 83.5 mg/dL; TG (9 h): 70.2 mg/dL; TP (9 h): 5.6 g/dL; gamma-GTP (9 h): 0 IU/L; TERMINAL_BW (24 h): 216.8 g; APTT (24 h): 15.6 s; Bas (24 h): 0%; Eos (24 h): 1.2%; Fbg (24 h): 234.2 mg/dL; Hb (24 h): 12.9 g/dL; Ht (24 h): 38.4%; Lym (24 h): 70.4%; MCH (24 h): 21.6 pg; MCHC (24 h): 33.7%; MCV (24 h): 64.2 fL; Mono (24 h): 11.6%; Neu (24 h): 16.8%; PT (24 h): 11.7 s; Plat (24 h): 125.6 x10_4/uL; RBC (24 h): 597.8 x10_4/ul; Ret (24 h): 9%; WBC (24 h): 122.2 x10_2/uL; LIVER (24 h): 11.1 g; A/G (24 h): 2.4; ALP (24 h): 1483.4 IU/L; ALT (24 h): 43.2 IU/L; AST (24 h): 67.2 IU/L; BUN (24 h): 16 mg/dL; CRE (24 h): 0.4 mg/dL; Ca (24 h): 11.3 mg/dL; Cl (24 h): 103.2 meq/L; DBIL (24 h): 0.01 mg/dL; GLC (24 h): 182.2 mg/dL; IP (24 h): 7.2 mg/dL; K (24 h): 4.6 meq/L; LDH (24 h): 101.4 IU/L; Na (24 h): 139 meq/L; PL (24 h): 163.8 mg/dL; RALB (24 h): 3.9 g/dL; TBIL (24 h): 0.032 mg/dL; TC (24 h): 90 mg/dL; TG (24 h): 131.8 mg/dL; TP (24 h): 5.5 g/dL; gamma-GTP (24 h): 0.8 IU/L
